Assays:
GGEc = target: T1, GGEc (Drosophila melanogaster, UniProt P34021); experiment: Induction of GRE reporter G4M-77CO by chimeric receptor GGEc in 293 cells; format: cell-based; conditions: for fold induction: 293 cells, reporter G4M-77CO, normalized to hGH, SD in parentheses
T1 construct: expressed in transfected cells; host or cells: 293 cells
T1 sequence (P34021 329-878): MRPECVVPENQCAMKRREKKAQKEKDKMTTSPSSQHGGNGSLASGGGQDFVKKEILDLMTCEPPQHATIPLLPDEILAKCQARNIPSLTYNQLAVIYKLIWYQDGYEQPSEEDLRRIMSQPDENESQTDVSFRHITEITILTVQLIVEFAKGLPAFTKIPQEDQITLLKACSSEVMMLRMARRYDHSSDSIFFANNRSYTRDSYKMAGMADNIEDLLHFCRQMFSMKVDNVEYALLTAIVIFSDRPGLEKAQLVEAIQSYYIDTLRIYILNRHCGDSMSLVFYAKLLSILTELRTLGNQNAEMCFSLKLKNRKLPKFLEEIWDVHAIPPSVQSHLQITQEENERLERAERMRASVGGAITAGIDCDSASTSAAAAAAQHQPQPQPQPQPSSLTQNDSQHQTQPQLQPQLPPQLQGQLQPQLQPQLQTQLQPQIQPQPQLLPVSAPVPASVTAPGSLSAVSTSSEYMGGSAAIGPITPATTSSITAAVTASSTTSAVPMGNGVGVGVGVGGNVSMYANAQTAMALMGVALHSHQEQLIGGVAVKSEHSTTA
Description: I choose to determine if the ligand-binding domain of DHR23a could be used to regulate the DNA-binding and transactivation domains of the mammalian glucocorticoid receptor for the following reasons. First, in contrast to DHR23α, high affinity DNA-binding sites for the GR have been identified (M. Beato, Cell 56, 335 [1989]) and reporter genes containing these sites are very strongly regulated. Thus, the sensitivity of our assays could be increased. Secondly, these chimeric receptors could be utilized to selectively regulate endogenous genes in mammalian cells in response to ecdysteroids. I constructed a chimeric gene, GGEc, in which the sequences encoding the ligand-binding domain of the GR were replaced with that of DHR23α (Fig. 4A). […] However, expression of the GRE-containing reporter gene was induced more than 700 fold by GGEc in muristerone-treated cells.

X4C-33CO = experiment: Lex-operator reporter X4C-33CO, control effector plasmid without receptor cDNA; format: cell-based; conditions: SD in parentheses
Description: (§1) Such fusion constructs are expected to be useful in regulating the expression of exogenous genes introduced into transgenic mammals or mammalian cells. I next determined if the DHR23α ligand-binding domain could be used to regulate the activity of a DNA-binding domain not normally expressed in mammalian cells. I constructed the chimeric gene GLxEc by replacing the sequences coding for the GR DNA-binding domain in the GGEc fusion with those encoding the DNA-binding domain of the Escherichia coli LexA repressor (J. W. Little and S. A. Hill, Proc. Natl. Acad. Sci. U.S.A. 82, 2301 [1985]) (Fig. 4). A reporter gene, X4C-33CO was constructed that contains 4 copies of a 26-bp lex operator (R. Brent and M. Ptashne, Nature 312, 612 [1984]) at position -33 of the CMV promoter. GLxEc had no effect on the expression of a OC-33CO, a reporter gene lacking the lex operator (Fig. 6B).
(§2) Illustrated in Table 2 is the transcriptional activation by receptor-LexA fusion proteins. Effector plasmids encoding the indicated receptor proteins were transfected with a reporter gene either containing (X4C-33CO) or lacking (OC-33CO) lex-operators. […] The cells were incubated either with (+) or without (-) muristerone A. The fold induction was determined as described previously; the standard deviations are shown in parenthesis.

GXG = target: T2, GXG (Rattus norvegicus, UniProt P06536); experiment: Lex-operator reporter X4C-33CO with GXG; format: cell-based; conditions: receptor GXG, SD in parentheses
T2 construct: expressed in transfected cells
T2 sequence (P06536 528-795): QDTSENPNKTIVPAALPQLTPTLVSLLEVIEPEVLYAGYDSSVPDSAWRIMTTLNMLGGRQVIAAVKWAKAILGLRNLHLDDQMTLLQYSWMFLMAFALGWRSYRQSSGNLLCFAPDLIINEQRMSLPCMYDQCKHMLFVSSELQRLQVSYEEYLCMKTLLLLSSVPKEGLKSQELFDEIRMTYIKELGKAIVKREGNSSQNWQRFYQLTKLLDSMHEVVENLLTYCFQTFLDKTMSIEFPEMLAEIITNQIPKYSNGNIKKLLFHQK
Description: as §1, §2

GXEc = target: T3, GXEc (Drosophila melanogaster, UniProt P34021); experiment: Reporter OC-33CO lacking lex-operators with GXEc; format: cell-based; conditions: receptor GXEc, SD in parentheses
T3 construct: expressed in transfected cells
T3 sequence (P34021 329-878): T1 sequence (P34021 329-878)
Description: as §1, §2

insect = conditions: in vivo; cited from earlier work
EcEcEc = EcEcEc (Drosophila melanogaster, UniProt P34021); experiment: Lex-operator reporter X4C-33CO with EcEcEc (DHR23α); format: cell-based; parameters: To isolate the full-length DHR23α clones; expressed in transfected cells; conditions: receptor EcEcEc, SD in parentheses
Description: as §1, §2

GGG = target: T4, GGG (Rattus norvegicus, UniProt P06536); experiment: Induction of GRE reporter G4M-77CO by GGG (glucocorticoid receptor) in 293 cells; conditions: normalized to hGH, SD in parentheses, 2880 min
T4 sequence (P06536 1-795): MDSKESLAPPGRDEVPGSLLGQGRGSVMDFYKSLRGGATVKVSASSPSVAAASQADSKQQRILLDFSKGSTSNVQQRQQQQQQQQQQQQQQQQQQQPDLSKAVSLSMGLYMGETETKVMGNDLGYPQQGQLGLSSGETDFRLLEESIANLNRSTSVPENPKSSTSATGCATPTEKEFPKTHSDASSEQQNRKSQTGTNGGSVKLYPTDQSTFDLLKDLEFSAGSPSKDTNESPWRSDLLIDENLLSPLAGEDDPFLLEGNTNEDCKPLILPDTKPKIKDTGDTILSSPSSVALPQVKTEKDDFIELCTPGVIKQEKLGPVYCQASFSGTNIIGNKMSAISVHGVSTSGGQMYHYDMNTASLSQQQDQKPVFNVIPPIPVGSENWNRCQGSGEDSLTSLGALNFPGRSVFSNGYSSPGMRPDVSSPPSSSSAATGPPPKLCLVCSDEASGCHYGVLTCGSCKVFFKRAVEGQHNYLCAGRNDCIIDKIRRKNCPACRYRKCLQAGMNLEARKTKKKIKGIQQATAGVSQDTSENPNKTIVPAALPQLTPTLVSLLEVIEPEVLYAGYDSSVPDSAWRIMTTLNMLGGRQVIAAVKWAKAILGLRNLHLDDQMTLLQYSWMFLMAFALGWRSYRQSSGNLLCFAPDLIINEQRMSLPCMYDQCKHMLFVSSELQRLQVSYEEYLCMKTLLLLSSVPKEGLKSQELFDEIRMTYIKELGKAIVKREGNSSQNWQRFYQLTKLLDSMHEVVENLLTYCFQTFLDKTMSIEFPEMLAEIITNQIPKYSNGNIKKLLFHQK

EcEcEc, sequence (P19793 whole entry): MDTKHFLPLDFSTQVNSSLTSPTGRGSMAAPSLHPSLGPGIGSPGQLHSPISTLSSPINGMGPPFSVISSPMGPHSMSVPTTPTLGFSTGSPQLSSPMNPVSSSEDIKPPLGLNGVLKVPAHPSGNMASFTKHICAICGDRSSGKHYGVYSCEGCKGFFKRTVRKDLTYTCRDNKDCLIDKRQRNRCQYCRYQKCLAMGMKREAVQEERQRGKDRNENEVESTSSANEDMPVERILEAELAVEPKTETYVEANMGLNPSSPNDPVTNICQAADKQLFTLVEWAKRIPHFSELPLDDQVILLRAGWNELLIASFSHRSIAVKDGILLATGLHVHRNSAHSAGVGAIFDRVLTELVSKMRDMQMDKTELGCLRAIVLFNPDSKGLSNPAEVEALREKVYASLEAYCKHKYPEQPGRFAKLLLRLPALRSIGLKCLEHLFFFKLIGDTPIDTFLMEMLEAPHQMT
EcEcEc, sequence (P34021 whole entry): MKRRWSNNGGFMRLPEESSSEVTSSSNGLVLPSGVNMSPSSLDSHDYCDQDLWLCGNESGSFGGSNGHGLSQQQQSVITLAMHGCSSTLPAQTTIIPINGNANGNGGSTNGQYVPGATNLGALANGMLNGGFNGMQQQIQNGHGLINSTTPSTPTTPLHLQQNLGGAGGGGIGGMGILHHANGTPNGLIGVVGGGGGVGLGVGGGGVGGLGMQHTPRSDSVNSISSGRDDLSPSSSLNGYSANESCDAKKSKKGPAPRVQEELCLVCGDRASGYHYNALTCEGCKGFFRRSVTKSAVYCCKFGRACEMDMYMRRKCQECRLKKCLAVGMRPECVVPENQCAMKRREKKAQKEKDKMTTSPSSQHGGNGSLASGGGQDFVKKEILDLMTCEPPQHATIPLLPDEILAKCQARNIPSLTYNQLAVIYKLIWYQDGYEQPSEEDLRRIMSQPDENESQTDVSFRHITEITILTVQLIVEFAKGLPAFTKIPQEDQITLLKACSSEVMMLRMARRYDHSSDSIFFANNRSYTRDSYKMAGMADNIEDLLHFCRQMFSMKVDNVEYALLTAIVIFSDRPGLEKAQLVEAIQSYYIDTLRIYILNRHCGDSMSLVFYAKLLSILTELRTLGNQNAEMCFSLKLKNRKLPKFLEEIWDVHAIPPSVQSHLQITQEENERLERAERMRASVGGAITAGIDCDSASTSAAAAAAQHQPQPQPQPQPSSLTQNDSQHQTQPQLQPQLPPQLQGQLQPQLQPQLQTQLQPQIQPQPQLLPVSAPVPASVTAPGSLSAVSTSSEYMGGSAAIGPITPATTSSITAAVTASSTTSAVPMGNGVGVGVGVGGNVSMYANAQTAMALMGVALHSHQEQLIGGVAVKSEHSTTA

SMILES: CC(C)CCC(O)[C@](C)(O)[C@H]1CC[C@@]2(O)C3=CC(=O)C4(O)CC(O)C(O)C[C@]4(C)[C@H]3C(O)C[C@]12C (some centres unmarked) [muristerone A, 2,3,5,11,14,20,22-Heptahydroxy-7-cholesten-6-one]
- fold induction (GGEc): more than 700 fold
- fold induction (GGEc; listed as M): 798 (57) fold
- relative efficacies of ecdysteroids as agonists for the chimeric receptor (GGEc; GRE reporter G4M-77CO): strong
- fold induction (X4C-33CO): 1.1 (0.3) fold
- fold induction (GXG): 1.1 (0.2) fold
- fold induction (GXG; listed as muristerone): not induced
- fold induction (GXEc): 0.9 (0.3) fold
- insect moulting activity (insect): high
- fold induction (EcEcEc): 1.4 (0.1) fold
- fold induction (EcEcEc; listed as muristerone): not induced
- fold induction (GGG): 1.0 (0.3) fold

Source: patent publication EP0598011B1, “ECDYSTEROID DEPENDENT REGULATION OF GENES IN MAMMALIAN CELLS” (GENENTECH, INC., priority 1991, dated 1993)
